Measurements taken from patent publication US10214546B2, “Btk inhibitors” (MERCK SHARP & DOHME CORP., priority 2014, dated 2019).
Like-named read-outs stand apart in the source and are kept apart here.

Columns and labels:
[1] = target: BTK enzyme (recombinant full-length BTK, hBTK) (Homo sapiens (Human), UniProt Q06187); assay: BTK enzymatic activity LANCE TR-FRET assay; format: biochemical; details: 50 pM hBTK, 25 μM ATP, 2 μM biotin-A5-peptide; compound range 1 μM to 0.017 nM; read-out: BTK binding IC50
Sequence of BTK enzyme (recombinant full-length BTK, hBTK) (Q06187 whole entry): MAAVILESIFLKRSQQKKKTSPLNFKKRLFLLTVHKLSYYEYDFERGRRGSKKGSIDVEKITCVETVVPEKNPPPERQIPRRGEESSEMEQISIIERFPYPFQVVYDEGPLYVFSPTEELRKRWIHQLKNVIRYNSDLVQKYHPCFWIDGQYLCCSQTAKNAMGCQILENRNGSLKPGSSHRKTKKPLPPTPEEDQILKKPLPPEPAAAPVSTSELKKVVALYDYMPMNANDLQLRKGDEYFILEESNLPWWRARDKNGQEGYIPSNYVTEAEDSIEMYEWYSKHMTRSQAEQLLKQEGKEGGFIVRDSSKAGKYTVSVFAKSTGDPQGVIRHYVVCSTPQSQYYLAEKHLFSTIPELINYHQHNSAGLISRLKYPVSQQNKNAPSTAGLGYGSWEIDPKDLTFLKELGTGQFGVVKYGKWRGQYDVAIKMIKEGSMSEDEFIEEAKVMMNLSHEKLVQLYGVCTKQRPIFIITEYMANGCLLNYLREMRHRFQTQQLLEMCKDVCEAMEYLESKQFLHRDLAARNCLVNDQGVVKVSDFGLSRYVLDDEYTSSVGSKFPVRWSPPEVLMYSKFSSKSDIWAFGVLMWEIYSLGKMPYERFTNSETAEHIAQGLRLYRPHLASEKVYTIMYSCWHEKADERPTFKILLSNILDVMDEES

[2] = tested on: adenosine uptake into HeLa cells; assay: [3H]Adenosine uptake assay in HeLa cells; format: cell-based; details: compound range 10 μM to 0.032 nM
Outline: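 HeLa cells in HBSS + 5% FBS were preincubated 30 min at ambient temperature with compound (ten-point 1:3 series, 10 µM–[…] final), then given [3H]adenosine (added as a 500 nM solution) for 60 min. Cell-associated label was read by scintillating-plate proximity counting; IC50 from 4-parameter fit of cps versus log concentration.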

[3] = Homo sapiens, HeLa, [3H]adenosine accumulation in HeLa cells, read-out: ADU inhibition IC50
[4] = [3H]adenosine accumulation in HeLa cells, read-out: ADU inhibition IC50

IC50 [1] [nM]	IC50 [2, 3] [nM]	IC50 [2, 4] [nM]	Compound	IC50 ([2]; Homo sapiens, HeLa, read-out: ADU inhibition IC50 (nM), [3H]adenosine accumulation in HeLa cells) [nM]
7.5	4270		C[C@@](O)(c1ccc(-c2nc([C@H]3CN4C(=O)COC[C@@H]4CO3)n3ccnc(N)c23)cc1)c1cccc(C(F)(F)F)c1 [Example 176, (7R,9aR)-7-[8-amino-1-(4-{(1R)-1-hydroxy-1-[3-(trifluoromethyl)phenyl]ethyl}phenyl)imidazo [1,5-a]pyrazin-3-yl]tetrahydro-1H-[1,4]oxazino[3,4-c][1,4]oxazin-4(3H)-one]	
2.8	2640		CC1(C)OC(=O)N2C[C@H](c3nc(-c4ccc([C@@](C)(O)c5cccc(C(F)F)c5)cc4)c4c(N)nccn34)OC[C@H]21 [Example 187, (6R,8aS)-6-[8-amino-1-(4-{(1R)-1-[3-(difluoromethyl)phenyl]-1-hydroxyethyl}phenyl)imidazo[1,5-a]pyrazin-3-yl]-1,1-dimethyltetrahydro-1H-[1,3]oxazolo[4.3-c][1,4]oxazin-3-one]	
1.1		1300	CC(O)(c1cccc(C(F)(F)F)c1)c1ccc(-c2nc([C@@H]3CC[C@@H]4N(C3)C(=O)CC4(C)C)n3ccnc(N)c23)c(F)c1 (stereo partly drawn) [Example 194, (6R,8aS)-6-[8-amino-1-(2-fluoro-4-{1-hydroxy-1-[3-(trifluoromethyl)phenyl]ethyl}phenyl)imidazo [1,5-a]pyrazin-3-yl]-1,1-dimethylhexahydroindolizin-3(2H)-one]	
117	945		CC(C)(c1cccc([C@@](C)(O)c2ccc(-c3nc([C@@H]4CC[C@H]5CCC(=O)N5C4)n4c(Cl)cnc(N)c34)cc2)c1)C(F)(F)F [Example 123, (6R,8aS)-6-[8-amino-5-chloro-1-(4-{(1S)-1-hydroxy-1-[3-(2,2,2-trifluoro-1,1-dimethylethyl)phenyl]ethyl}phenyl)imidazo[1,5-a]pyrazin-3-yl]hexahydroindolizin-3(2H)-one]	
1000	1470		C[C@](O)(c1ccc(-c2nc([C@@H]3CC[C@H]4CCCN4C3)n3ccnc(N)c23)cc1)c1cccc(C(F)(F)F)c1 [Example 63, (1S)-1-(4-{8-amino-3-[(6R,8aS)-octahydroindolizin-6-yl]imidazo[1,5-a]pyrazin-1-yl}phenyl)-1-[3-(trifluoromethyl)phenyl] ethanol]	
1.8	1980		C[C@@](O)(c1ccc(-c2nc([C@@H]3CC[C@H]4CCC(=O)N4C3)n3ccnc(N)c23)cc1)c1cccc(OC2CC2)c1 [Example 95, (6R,8aS)-6-[8-amino-1-(4-{(1R)-1-[3-(cyclopropyloxy)phenyl]-1-hydroxyethyl}phenyl)imidazo[1,5-a]pyrazin-3-yl]hexahydroindolizin-3(2H)-one]	
26		1120	COc1cc(C(C)(O)c2cccc(C(F)(F)F)c2)ccc1-c1nc([C@@H]2CC[C@@H]3N(C2)C(=O)CC3(C)C)n2ccnc(N)c12 (stereo partly drawn) [Example 209, (6R,8aS)-6-[8-amino-1-(4-{1-hydroxy-1-[3-(trifluoromethyl)phenyl]ethyl}-2-methoxyphenyl)imidazo [1,5-a]pyrazin-3-yl]-1,1-dimethylhexahydroindolizin-3(2H)-one]	
1.5	1380		C[C@@](O)(c1ccc(-c2nc([C@@H]3CC[C@H]4COCC(=O)N4C3)n3c(Cl)cnc(N)c23)cc1)c1cccc(C(F)(F)F)c1 [Example 175, (7R,9aS)-7-(8-amino-5-chloro-1-(4-{(1R)-1-hydroxy-1-[3-(trifluoromethyl)phenyl]ethyl}phenyl)imidazo [1,5-a]pyrazin-3-yl]hexahydropyrido[2,1-c][1,4]oxazin-4(3H)-one]	
0.21	2010		CC(C)c1cccc([C@](C)(O)c2ccc(-c3nc([C@@H]4CC[C@H]5CCC(=O)N5C4)n4ccnc(N)c34)cc2)c1 [Example 75, (6R,8aS)-6-[8-amino-1-(4-{(1R)-1-hydroxy-1-[3(1-methylethyl)phenyl]ethyl}phenyl)imidazo[1,5-a]pyrazin-3-yl]hexahydroindolizin-3(2H)-one]	
1000	704		C[C@](O)(c1ccc(-c2nc([C@@H]3CC[C@H]4CCC(=O)N4C3)n3ccnc(N)c23)cc1)c1cc(C(F)(F)F)ccn1 [Example 36]	
72.3	1470		C[C@@](O)(c1ccc(-c2nc([C@H]3CC[C@@H]4COCC(=O)N4C3)n3ccnc(N)c23)cc1)c1cccc(C(F)(F)F)c1 [Example 156, (7S,9aR)-7-(8-amino-1-(4-{(1R)-1-hydroxy-1-[3-(trifluoromethyl)pheny]ethyl}phenyl)imidazo [1,5-a]pyrazin-3-yl]hexahydropyrido[2,1-c][1,4]oxazin-4(3H)-one]	
6.9	1990		Nc1nccn2c([C@@H]3CC[C@H]4CCC(=O)N4C3)nc(-c3ccc(C(O)(c4cccc(F)c4)C(F)(F)F)cc3)c12 (stereo partly drawn) [Example 29, (6R,8aS)-6-(8-amino-1-{4-[2,2,2-trifluoro-1-(3-fluorophenyl)-1-hydroxyethyl]phenyl}imidazo[1,5-a]pyrazin-3-yl)hexahydroindolizin-3(2H)-one]	
28.9		1090	CC(O)(c1ccc(-c2nc([C@@H]3CC[C@H]4CCC(=O)N4C3)n3ccnc(N)c23)cc1)c1cccc(C2CC2(F)F)c1 (stereo partly drawn) [Example 165, (6R,8aS)-6-[8-amino-1-(4-{1-[3-(2,2-difluorocyclopropyl)phenyl]-1-hydroxyethyl}phenyl)imidazo[1,5-a]pyrazin-3-yl]hexahydroindolizin-3(2H)-one]	
26.2		3830	CC(O)(c1ccc(-c2nc([C@@H]3CC[C@H]4CCC(=O)N4C3)n3ccnc(N)c23)cc1)C1CC2CCC1CC2 (stereo partly drawn) [Example 147, (6R,8aS)-6-{8-amino-1-[4-(1-bicyclo[2.2.2]oct-2-yl-1-hydroxyethyl)phenyl]imidazo[1,5-a]pyrazin-3-yl}hexahydroindolizin-3(2H)-one]	
0.16		1920	CC(O)(c1cccc(C(F)F)c1)c1ccc(-c2nc([C@@H]3CC[C@@H]4N(C3)C(=O)CC4(C)C)n3ccnc(N)c23)c(F)c1 (stereo partly drawn) [Example 202, (6R,8aS)-6-(8-amino-1-(4-{1-[3-(difluoromethyl)phenyl]-1-hydroxyethyl}-2-fluorophenyl)imidazo[1,5-a]pyrazin-3-yl]-1,1-dimethylhexahydroindolizin-3(2H)-one]	
388	1780		CC(O)(c1ccc(-c2nc([C@@H]3CC[C@H]4CCC(=O)N4C3)n3ccnc(N)c23)cc1)c1ccc(C(F)(F)F)cc1 (stereo partly drawn) [Example 15, (6R,8aS)-6-[8-amino-1-(4-{1-hydroxy-1-[4-(trifluoromethyl)phenyl]ethyl}phenyl)imidazo[1,5-a]pyrazin-3-yl]hexahydroindolizin-3(2H)-one]	
1000	861		CC(O)(c1cccc(C(F)(F)F)c1)c1ccc(-c2nc([C@@H]3CC[C@H]4CCC(=O)N4C3)n3ccnc(N)c23)c(C(F)(F)F)c1 (stereo partly drawn) [Example 105, (6R,8aS)-6-{8-amino-1-[4-{1-hydroxy-1-[3-(trifluoromethyl)phenyl]ethyl}-2-(trifluoromethyl)phenyl]imidazo[1,5-a]pyrazin-3-yl}hexahydroindolizin-3(2H)-one]	
0.93	1250		C[C@@](O)(c1ccc(-c2nc([C@@H]3CC[C@H]4CCC(=O)N4C3)n3ccnc(N)c23)cc1)c1cccc(-c2ccccc2)c1 [Example 59, (6R,8aS)-6-(8-amino-1-{4-[(1R)-1-biphenyl-3-yl-1-hydroxyethyl]phenyl}imidazo[1,5-a]pyrazin-3-yl)hexahydroindolizin-3(2H)-one]	
258	5320		C[C@@](O)(c1ccc(-c2nc([C@@H]3CC[C@@H]4[C@@H](C(F)(F)F)CC(=O)N4C3)n3ccnc(N)c23)cc1)c1cccc(C(F)(F)F)c1 [Example 172, (1S,6R,8aR)-6-[8-amino-1-(4-{(1R)-1-hydroxy-1-[3-(trifluoromethyl)phenyl]ethyl}phenyl)imidazo [1,5-a]pyrazin-3-yl]-1-(trifluoromethyl) hexahydroindolizin-3(2H)-one]	
83.2	1490		CN1CC[C@H]2CC[C@H](c3nc(-c4ccc([C@@](C)(O)c5cccc(C(F)(F)F)c5)cc4)c4c(N)nccn34)CN2C1=O [Example 118, (4aR,7S)-7-[8-amino-1-(4-{(1R)-1-hydroxy-1-[3-(trifluoromethyl)phenyl]ethyl}phenyl)imidazo [1,5-a]pyrazin-3-yl]-2-methyloctahydro-1H-pyridol[1,2-c]pyrimidin-1-one]	
36.7		3360	CC(O)(c1cccc(C(F)(F)F)c1)c1ccc(-c2nc([C@@H]3CC[C@H]4CCC(=O)N4C3)n3ccnc(N)c23)cc1F (stereo partly drawn) [Example 60, (6R,8aS)-6-[8-amino-1-(3-fluoro-4-{1-hydroxy-1-[3-(trifluoromethyl)phenyl]ethyl}phenyl)imidazo [1,5-a]pyrazin-3-yl]hexahydroindolizin-3(2H)-one]	
230	2570		C[C@](O)(c1cccc(C(F)(F)F)c1)c1ccc(-c2nc([C@@H]3CC[C@H]4CCC(=O)N4C3)n3ccnc(N)c23)c(CO)c1 [Example 20, (6R,8aS)-6-(8-amino-1-(4-((R)-1-hydroxy-1-(3-(trifluoromethyl)phenyl)ethyl)-2-(hydroxymethyl)phenyl)imidazo[1,5-a]pyrazin-3-yl)hexahydroindolizin-3(2H)-one]	

Compound	IC50 [1] [nM]	IC50 [2, 3] [nM]	IC50 [2, 4] [nM]	IC50 ([2]; Homo sapiens, HeLa, read-out: ADU inhibition IC50 (nM), [3H]adenosine accumulation in HeLa cells) [nM]
CC(F)(F)c1cccc([C@@](C)(O)c2ccc(-c3nc([C@@H]4CC[C@H]5CCC(=O)N5C4)n4c(Cl)cnc(N)c34)cc2)c1 [Example 139, (6R,8aS)-6-[8-amino-5-chloro-1-(4-{(1S)-1-[3-(1,1-difluoroethyl)phenyl]-1-hydroxyethyl}phenyl)imidazo[1,5-a]pyrazin-3-yl]hexahydroindolizin-3(2H)-one]	24.9			449
